{"source": "patent US9585391B2", "about": "“Pesticidal mixtures” (priority 2009, dated 2017)", "format_in_all_cases": "in vivo", "key": {"wheat plants": {"system": "wheat plants", "experiment": "water loss through transpiration of cut wheat plants (drought tolerance)", "settings": "for transpiration (water loss): applied alone", "experimental": "The transpiration as an direct indicator of water stress of wheat plants treated or not treated with fluxapyroxad solo, dicamba solo, and respective mixtures thereof was assessed. 10 to 14 days old wheat plants were cut above the ground and placed into Eppendorf caps containing 2.2 ml of the test solution as described below. The wheat plants were incubated for 24 h at 25° C. and 50% relative humidity in a growth chamber. The weight of the Eppendorf cap including the test solution but excluding the plant was assessed before and after incubation. The difference in weight was recorded as the loss of water through transpiration. This assay was used to asses the drought tolerance of the plants. In the present example wheat plants of the variety ‘Monopol’ were grown at 18° C. for 10 days in the greenhouse prior to the treatment and the incubation. 10 plants per treatment were treated and incubated as described. Fluxapyroxad and dicamba were dissolved on 0.5% DMSO. The tested concentrations are described in table 3. Control plants were treated with the blank 0.5% DMSO solution only. The efficacy of the tested compounds and mixtures was calculated as % of water loss compared to the control; […] The expected efficacies of the combinations of the compounds were estimated using Colby's formula (Colby, S."}, "cucumber cotyledons": {"system": "cucumber cotyledons", "experiment": "growth (biomass) of cucumber cotyledons", "settings": "for stimulation of the growth of the cotyledons: applied alone; for Mean cotyledon biomass: 4 days in the dark at 21.5° C.; for Observed efficacy: % biomass increase compared to the control", "experimental": "The effect of fluxapyroxad solo, dicamba solo and a mixture comprising both compounds on the growth (biomass) of cucumber cotyledons was evaluated. […] Subsequently, 20 to 30 cotyledons per treatment were cut and placed in a Petri dish containing 10 ml of the treatment solution as described below. Control cotyledons were treated with the 0.5% DMSO solution only. Following the incubation in the dark at 21.5° C. for 4 days the cotyledons were weight and the fresh biomass recorded (table 2). […] The efficacy of the tested active ingredients was calculated as % of biomass increase compared to the control: E=(a/b−1)·100 a corresponds to biomass of cotyledons after incubation in the treated plants in g; and b corresponds to biomass of cotyledons after incubation in the control in g. […] The expected efficacies of the combinations of the active ingredients were estimated using Colby's formula (Colby, S."}, "wheat leaves": {"system": "wheat leaves", "experiment": "relative weight loss of detached wheat leaves (drought tolerance)", "settings": "for fresh weight loss: applied alone", "experimental": "The relative weight loss of wheat leaves treated or not treated with fluxapyroxad, dicamba, and mixtures thereof as an indirect parameter for increased drought tolerance was assessed. Leaves of 10 to 14 days old wheat plants were detached and placed into Eppendorf caps containing 2.2 ml of the test solution as described below. The wheat leaves were incubated for 24 h at 25° C. and 50% relative humidity in a growth chamber. After incubation, the incubated leaves were removed from the solution and placed on filter paper in a growth chamber for 60 minutes (25° C., 50% rel. humidity). Fresh biomass of the leaves was assessed directly after incubation and in addition after 60 minutes. The difference in fresh weight was recorded as relative weight loss. The relative loss of fresh weight is calculated as: [formula] In the present example wheat plants of the variety ‘Monopol’ were grown at 18° C. for 10 days in the greenhouse prior to the treatment and the incubation. 10 plants per treatment were treated and incubated as described. Fluxapyroxad and dicamba were dissolved on 0.5% DMSO. Tested concentrations are described in table 4. Control plants were treated with the blank 0.5% DMSO solution only. The efficacy of the tested compounds and mixtures was calculated as % of relative weight loss compared to the control: […] The expected efficacies of the combinations of the compounds were estimated using Colby's formula (Colby, S."}}, "data": [{"smiles": "COc1c(Cl)ccc(Cl)c1C(=O)O", "note": "[Dicamba, dicamba]", "values": [{"measurement": "Mean water loss", "setting": "wheat plants; dicamba 1.25 ppm", "result": 0.781, "unit": "g"}, {"measurement": "Observed efficacy", "setting": "wheat plants; dicamba 1.25 ppm", "result": "−4.8", "unit": "%"}, {"measurement": "Mean water loss", "setting": "wheat plants; dicamba 12.5 ppm", "result": 0.765, "unit": "g"}, {"measurement": "Observed efficacy", "setting": "wheat plants; dicamba 12.5 ppm", "result": "−2.7", "unit": "%"}, {"measurement": "Mean water loss", "setting": "wheat plants; dicamba 125 ppm", "result": 0.737, "unit": "g"}, {"measurement": "Observed efficacy", "setting": "wheat plants; dicamba 125 ppm", "result": 1.1, "unit": "%"}, {"measurement": "transpiration (water loss)", "setting": "wheat plants; lower concentrations", "result": "increased transpiration"}, {"measurement": "stimulation of the growth of the cotyledons", "setting": "cucumber cotyledons", "result": "no stimulation of the growth"}, {"measurement": "Mean cotyledon biomass", "setting": "cucumber cotyledons; dicamba 1.25 ppm", "result": 48.2, "unit": "mg"}, {"measurement": "Observed efficacy", "setting": "cucumber cotyledons; dicamba 1.25 ppm", "result": 0.2, "unit": "%"}, {"measurement": "fresh weight loss", "setting": "wheat leaves", "result": "reduced fresh weight loss"}, {"measurement": "Mean relative weight loss", "setting": "wheat leaves; dicamba 1.25 ppm", "result": 17.09, "unit": "%"}, {"measurement": "Observed efficacy", "setting": "wheat leaves; dicamba 1.25 ppm", "result": 10.69, "unit": "%"}, {"measurement": "Mean relative weight loss", "setting": "wheat leaves; dicamba 12.5 ppm", "result": 15.74, "unit": "%"}, {"measurement": "Observed efficacy", "setting": "wheat leaves; dicamba 12.5 ppm", "result": 17.76, "unit": "%"}]}, {"smiles": "Cn1cc(C(=O)Nc2ccccc2-c2cc(F)c(F)c(F)c2)c(C(F)F)n1", "note": "[Fluxapyroxad, N-(3′,4′,5′-trifluorobiphenyl-2-yl)-3-difluoromethyl-1-methyl-1H-pyrazole-4-carboxamide]", "values": [{"measurement": "Mean water loss", "setting": "wheat plants; fluxapyroxad 10 ppm, 24 h at 25° C., 50% relative humidity", "result": 1.061, "unit": "g"}, {"measurement": "Observed efficacy", "setting": "wheat plants; fluxapyroxad 10 ppm, water loss compared to the control", "result": "−42.4", "unit": "%"}, {"measurement": "Mean water loss", "setting": "wheat plants; fluxapyroxad 50 ppm", "result": 0.660, "unit": "g"}, {"measurement": "Observed efficacy", "setting": "wheat plants; fluxapyroxad 50 ppm", "result": 11.5, "unit": "%"}, {"measurement": "Mean water loss", "setting": "wheat plants; fluxapyroxad 100 ppm", "result": 0.607, "unit": "g"}, {"measurement": "Observed efficacy", "setting": "wheat plants; fluxapyroxad 100 ppm", "result": 18.5, "unit": "%"}, {"measurement": "transpiration (water loss)", "setting": "wheat plants; higher concentrations", "result": "decreased transpiration"}, {"measurement": "transpiration (water loss)", "setting": "wheat plants; lower concentrations", "result": "increased transpiration"}, {"measurement": "stimulation of the growth of the cotyledons", "setting": "cucumber cotyledons", "result": "no stimulation of the growth"}, {"measurement": "Mean cotyledon biomass", "setting": "cucumber cotyledons; fluxapyroxad 5 ppm", "result": 47.1, "unit": "mg"}, {"measurement": "Observed efficacy", "setting": "cucumber cotyledons; fluxapyroxad 5 ppm", "result": "−1.9", "unit": "%"}, {"measurement": "fresh weight loss", "setting": "wheat leaves", "result": "reduced fresh weight loss"}, {"measurement": "Mean relative weight loss", "setting": "wheat leaves; fluxapyroxad 10 ppm, 24 h incubation, then 60 minutes on filter paper (25° C., 50% rel. humidity)", "result": 17.62, "unit": "%"}, {"measurement": "Observed efficacy", "setting": "wheat leaves; fluxapyroxad 10 ppm, relative weight loss compared to the control", "result": 7.94, "unit": "%"}, {"measurement": "Mean relative weight loss", "setting": "wheat leaves; fluxapyroxad 50 ppm", "result": 13.61, "unit": "%"}, {"measurement": "Observed efficacy", "setting": "wheat leaves; fluxapyroxad 50 ppm", "result": 28.89, "unit": "%"}]}]}
